Laboratory results from US20080039438A1, “1B-Methylcarbapenem Derivative and Process for the Preparation Thereof” (Korea Institute of Science and Technology, priority 2004, published 2008).

Columns and labels:
Assay type in all cases: cell-based
Enterobacter cloacae = test: MIC against clinically isolated aerobic Gram-negative strains; conditions: 29 strains
Escherichia coli 1507E = test: MIC against standard strains (agar dilution); conditions: standard strain Escherichia coli 1507E, 37° C., 18 to 20 hours, read-out: Minimum Inhibitory Concentration (MIC)
Salmonella typhimurium = test: MIC against standard strains (agar dilution); conditions: Salmonella enterica, standard strain Salmonella typhimurium, 37° C., 18 to 20 hours, read-out: Minimum Inhibitory Concentration (MIC)
[1] = tested on: Streptococcus faecium MD 8b; test: MIC against standard strains (agar dilution); conditions: Enterococcus faecium, MD8B, standard strain Streptococcus faecium MD 8b, 37° C., 18 to 20 hours, read-out: Minimum Inhibitory Concentration (MIC)
[2] = tested on: Pseudomonas aeruginosa 1771; test: MIC against standard strains (agar dilution); conditions: standard strain Pseudomonas aeruginosa 1771, 37° C., 18 to 20 hours, read-out: Minimum Inhibitory Concentration (MIC)
Streptococcus pneumoniae = test: MIC against clinically isolated aerobic Gram-positive strains; conditions: 22 strains
Klebsiella pneumoniae = test: MIC against clinically isolated aerobic Gram-negative strains; conditions: 30 strains
Streptococcus pyogenes = test: MIC against clinically isolated aerobic Gram-positive strains; conditions: 15 strains
Moraxella catarrhalis = test: MIC against clinically isolated aerobic Gram-negative strains; conditions: 24 strains
Enterobacter cloacae P99 = test: MIC against standard strains (agar dilution); conditions: standard strain Enterobacter cloacae P99, 37° C., 18 to 20 hours, read-out: Minimum Inhibitory Concentration (MIC)
Clostridium perfringens = test: microbe, parasite or virus in culture; conditions: Clostridium perfringens
Clostridium difficile = test: MIC against clinically isolated anaerobic Gram-positive strains; conditions: 15 strains
Experimental: The in vitro antibacterial activities of the sodium 3-carboxylate compound of the present invention prepared in the above Example were measured against standard strains (Table 1), clinically isolated aerobic Gram-positive strains (Table 2), clinically isolated aerobic Gram-negative strains (Table 3), clinically isolated anaerobic Gram-positive strains (Table 4) and clinically isolated anaerobic Gram-negative strains (Table 5) using Gram-positive bacteria such as Streptococcus and Staphylococcus, Gram-negative bacteria such as Escherichia, Salmonella, Krebsiella and Enterobacter. Imipenem (IPM), meropenem (MPM) and ertapenem (EPM) were used as control groups.
The results are shown in Tables 1 to 5, and MIC50 and MIC90 represent the concentrations at which the test strain's growth was inhibited to the extents of 50% and 90%, respectively.

Enterococcus faecium = test: MIC against clinically isolated aerobic Gram-positive strains; conditions: clinically isolated Enterococcus faecium, 29 strains
[3] = tested on: Streptococcus pyogenes 77A; test: MIC against standard strains (agar dilution); conditions: standard strain Streptococcus pyogenes 77A, 37° C., 18 to 20 hours, read-out: Minimum Inhibitory Concentration (MIC)
Escherichia coli DC 2 = test: MIC against standard strains (agar dilution); conditions: DC2; standard strain Escherichia coli DC 2; agar, 37° C., 18 to 20 hours; read-out: Minimum Inhibitory Concentration (MIC)
Enterobacter aerogenes = test: MIC against clinically isolated aerobic Gram-negative strains; conditions: 14 strains
[4] = tested on: Methicillin-sensitive Staphylococcus aureus; test: MIC against clinically isolated aerobic Gram-positive strains; conditions: 33 strains
Escherichia coli = test: MIC against clinically isolated aerobic Gram-negative strains; conditions: 30 strains
Providentia sp. = test: as above; conditions: 13 strains
Bacteroides spp. = test: MIC against clinically isolated anaerobic Gram-negative strains; conditions: 11 strains
[5] = tested on: Pseudomonas aeruginosa 9027; test: MIC against standard strains (agar dilution); conditions: standard strain Pseudomonas aeruginosa 9027, 37° C., 18 to 20 hours, read-out: Minimum Inhibitory Concentration (MIC)
[6] = tested on: Staphylococcus aureus 503; test: MIC against standard strains (agar dilution); conditions: standard strain Staphylococcus aureus 503, 37° C., 18 to 20 hours, read-out: Minimum Inhibitory Concentration (MIC)
Escherichia coli DC 0 = test: MIC against standard strains (agar dilution); conditions: DC0, standard strain Escherichia coli DC 0, 37° C., 18 to 20 hours, read-out: Minimum Inhibitory Concentration (MIC)
[7] = tested on: Pseudomonas aeruginosa 1592E; test: MIC against standard strains (agar dilution); conditions: standard strain Pseudomonas aeruginosa 1592E, 37° C., 18 to 20 hours, read-out: Minimum Inhibitory Concentration (MIC)
[8] = tested on: Staphylococcus aureus SG511; test: MIC against standard strains (agar dilution); conditions: standard strain Staphylococcus aureus SG511, 37° C., 18 to 20 hours, read-out: Minimum Inhibitory Concentration (MIC)
Peptostreptococcus spp. = test: MIC against clinically isolated anaerobic Gram-positive strains; conditions: 27 strains
Citrobacter freundii = test: MIC against clinically isolated aerobic Gram-negative strains; conditions: 14 strains

## C[C@@H](O)[C@H]1C(=O)N2C(C(=O)O)=C(S[C@@H]3CN[C@H](/C=C/c4cc(C(=O)O)no4)C3)[C@H](C)[C@H]12 [Example, (1R,5S,6S,8R,3′S,5′S)-2-{5′-[(E)-2-(3-carboxylic acid or sodium carboxylate-5-isoxazolo)ethenyl]pyrrolidin-3′-ylthio}-6-(1-hydroxyethyl)-1-methylcarbapen-2-em-3-carboxylic acid]
Enterobacter cloacae
  MIC50: 0.12 µg/mL
  MIC90: 0.5 µg/mL
  MIC Range: 0.015 to 2 µg/mL
Escherichia coli 1507E
  MIC: 0.025 µg/mL
Salmonella typhimurium
  MIC: 0.049 µg/mL
[1]
  MIC: 12.5 µg/mL
[2]
  MIC: 0.391 µg/mL
Streptococcus pneumoniae
  MIC50: 0.008 µg/mL
  MIC90: 0.12 µg/mL
  MIC Range: 0.008 to 0.25 µg/mL
Klebsiella pneumoniae
  MIC50: 0.03 µg/mL
  MIC90: 0.12 µg/mL
  MIC Range: 0.015 to 0.25 µg/mL
Streptococcus pyogenes
  MIC50: < 0.008 µg/mL
  MIC90: < 0.008 µg/mL
  MIC Range: <0.008 µg/mL
Moraxella catarrhalis
  MIC50: 0.03 µg/mL
  MIC90: 0.06 µg/mL
  MIC Range: 0.015 to 0.06 µg/mL
Enterobacter cloacae P99
  MIC: 0.098 µg/mL
Clostridium perfringens
  MIC50: 0.06 µg/mL
  MIC90: 0.12 µg/mL
Clostridium difficile
  MIC Range: 2 to 4 µg/mL
Clostridium difficile; Clostridioides difficile
  MIC50: 4 µg/mL
  MIC90: 4 µg/mL
Enterococcus faecium
  MIC Range: 16 to 128 µg/mL
Enterococcus faecium; read-out: MIC50
  MIC50: 128 µg/mL
Enterococcus faecium; read-out: MIC90
  MIC90: 128 µg/mL
[3]
  MIC: 0.049 µg/mL
Escherichia coli DC 2
  MIC: 0.025 µg/mL
Enterobacter aerogenes
  MIC Range: 0.015 to 0.12 µg/mL
Enterobacter aerogenes; Klebsiella aerogenes
  MIC50: 0.06 µg/mL
  MIC90: 0.25 µg/mL
[4]
  MIC50: 0.12 µg/mL
  MIC90: 0.12 µg/mL
  MIC Range: 0.06 to 0.12 µg/mL
Escherichia coli
  MIC50: 0.03 µg/mL
  MIC90: 0.25 µg/mL
  MIC Range: 0.008 to 2 µg/mL
Providentia sp.
  MIC50: 0.06 µg/mL
  MIC90: 8 µg/mL
  MIC Range: 0.008 to 8 µg/mL
Bacteroides spp.
  MIC50: 1 µg/mL
  MIC90: 1 µg/mL
  MIC Range: 1 to 2 µg/mL
[5]
  MIC: 0.098 µg/mL
[6]
  MIC: 0.098 µg/mL
Escherichia coli DC 0
  MIC: 0.025 µg/mL
[7]
  MIC: 0.195 µg/mL
[8]
  MIC: 0.098 µg/mL
Peptostreptococcus spp.
  MIC50: 0.12 µg/mL
  MIC90: 4 µg/mL
  MIC Range: 0.06 to 4 µg/mL
Citrobacter freundii
  MIC50: 0.03 µg/mL
  MIC90: 0.12 µg/mL
  MIC Range: 0.015 to 0.25 µg/mL
